3 molecules from PMC3966265, “Phosphorylation of Arabidopsis transketolase at Ser^428 provides a potential paradigm for the metabolic control of chloroplast carbon metabolism” (Biochemical Journal, 2014) can be followed below.

The structures appear in SMILES notation.

Holding throughout (assay type): biochemical
Experiment [1] addresses T1, AtTKL1 (Arabidopsis thaliana, UniProt Q8RWV0, S428D).
T1 construct: gene TKL-1; mature form lacking N-terminal 67 residues (chloroplast-targeting peptide); N-terminal intein tag cleaved; E. coli ER2566; 73 kDa; homodimer
Briefly: coupled NAD reduction assay with E. coli E4PDH, A340. The following applies: phosphomimetic mutant; 2 mM G3P; 0.1 mM TPP; 15 mM MgCl2; 5 mM CaCl2; pH 7.2 and 8.0; 30 °C.

Experiment [2] deals with T2, AtTKL1 (Arabidopsis thaliana, UniProt Q8RWV0).
T2 construct: gene TKL-1; mature form lacking N-terminal 67 residues (chloroplast-targeting peptide); N-terminal intein tag cleaved; E. coli ER2566; 73 kDa; homodimer
T2 sequence (Q8RWV0 68-741): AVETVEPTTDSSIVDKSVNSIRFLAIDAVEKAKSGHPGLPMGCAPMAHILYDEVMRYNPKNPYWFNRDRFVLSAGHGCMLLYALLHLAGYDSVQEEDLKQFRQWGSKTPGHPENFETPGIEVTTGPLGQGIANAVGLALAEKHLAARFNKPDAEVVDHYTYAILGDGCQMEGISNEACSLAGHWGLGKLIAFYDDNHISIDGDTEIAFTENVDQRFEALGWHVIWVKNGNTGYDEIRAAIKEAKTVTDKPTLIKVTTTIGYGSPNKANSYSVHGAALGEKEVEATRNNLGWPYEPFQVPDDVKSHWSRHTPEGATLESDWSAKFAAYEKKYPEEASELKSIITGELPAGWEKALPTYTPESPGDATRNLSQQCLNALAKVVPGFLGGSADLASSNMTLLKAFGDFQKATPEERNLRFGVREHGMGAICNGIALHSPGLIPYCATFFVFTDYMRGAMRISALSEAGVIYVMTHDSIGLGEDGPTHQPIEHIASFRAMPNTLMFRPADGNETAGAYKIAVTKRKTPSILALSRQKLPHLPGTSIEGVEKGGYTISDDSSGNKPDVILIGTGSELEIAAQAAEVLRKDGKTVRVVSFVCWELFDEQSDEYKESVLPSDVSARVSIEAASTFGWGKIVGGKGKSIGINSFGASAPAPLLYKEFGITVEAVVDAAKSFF
Described as above. The following applies: 2 mM G3P; 0.1 mM TPP; 15 mM MgCl2; 5 mM CaCl2; pH 7.2 and 8.0; 30 °C.

A further experiment concerns the target T3, cpCKII (Arabidopsis thaliana, UniProt O64816).
T3 construct: gene CKA4; mature form lacking N-terminal 85 residues; N-terminal GST fusion (pGEX4-T1) kept; E. coli
T3 sequence (O64816 86-432): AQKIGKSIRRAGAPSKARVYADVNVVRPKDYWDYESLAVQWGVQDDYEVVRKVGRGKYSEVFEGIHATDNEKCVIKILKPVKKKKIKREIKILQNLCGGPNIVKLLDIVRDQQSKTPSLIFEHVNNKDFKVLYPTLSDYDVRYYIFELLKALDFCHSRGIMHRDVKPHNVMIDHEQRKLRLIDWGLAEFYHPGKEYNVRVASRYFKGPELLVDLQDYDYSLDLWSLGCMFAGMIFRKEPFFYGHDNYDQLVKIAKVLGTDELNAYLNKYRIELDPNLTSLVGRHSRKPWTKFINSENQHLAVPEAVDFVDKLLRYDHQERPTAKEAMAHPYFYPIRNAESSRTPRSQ
The experiment in a line: […] phosphorylation of recombinant AtTKL1, SDS/PAGE autoradiogram. The settings on record: labelled compound; 10 mM MgCl2; pH 7.6; 22 °C; with calcium or EGTA.

T1 sequence (Q8RWV0 68-741 S428D): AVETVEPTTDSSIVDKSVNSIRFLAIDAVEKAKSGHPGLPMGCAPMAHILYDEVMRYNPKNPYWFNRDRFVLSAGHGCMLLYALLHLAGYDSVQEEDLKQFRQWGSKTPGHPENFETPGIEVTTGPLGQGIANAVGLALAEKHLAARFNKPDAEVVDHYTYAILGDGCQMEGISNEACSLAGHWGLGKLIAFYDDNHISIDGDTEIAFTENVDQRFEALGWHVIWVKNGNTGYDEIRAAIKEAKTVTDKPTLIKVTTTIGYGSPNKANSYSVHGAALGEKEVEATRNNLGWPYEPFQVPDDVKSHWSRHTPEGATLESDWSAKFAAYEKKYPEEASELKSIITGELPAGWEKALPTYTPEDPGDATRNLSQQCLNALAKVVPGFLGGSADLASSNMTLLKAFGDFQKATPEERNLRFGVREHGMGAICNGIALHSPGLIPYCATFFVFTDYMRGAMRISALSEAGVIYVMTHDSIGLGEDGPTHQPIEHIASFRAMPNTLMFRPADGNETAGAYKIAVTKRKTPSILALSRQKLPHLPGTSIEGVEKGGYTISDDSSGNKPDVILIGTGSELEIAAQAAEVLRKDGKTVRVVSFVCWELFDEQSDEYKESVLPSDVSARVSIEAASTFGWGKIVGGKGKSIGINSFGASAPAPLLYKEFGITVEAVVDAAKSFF

`O=P(O)(O)OC[C@H]1OC(O)(CO)[C@@H](O)[C@@H]1O` (stereo partly shown) [F6P]: the KmF6P entry on AtTKL1 [1] was “higher KmF6P and VmaxF6P values compared with the phosphomimetic mutant”; on AtTKL1 [2], “the wild-type enzyme had higher KmF6P and VmaxF6P values”. As for `Nc1ncnc2c1ncn2[C@@H]1O[C@H](COP(=O)(O)OP(=O)(O)OP(=O)(O)O)[C@@H](O)[C@H]1O` [ATP], the “32P phosphorylation of recombinant AtTKL1, SDS/PAGE autoradiogram” value at cpCKII was “cpCKII was able to phosphorylate recombinant AtTKL1 (Figure 2F, arrowheads)”. With `Nc1nc2c(ncn2[C@@H]2O[C@H](COP(=O)(O)OP(=O)(O)OP(=O)(O)O)[C@@H](O)[C@H]2O)c(=O)[nH]1` [GTP], the “32P phosphorylation of recombinant AtTKL1, SDS/PAGE autoradiogram” value at cpCKII was “recombinant cpCKII was able to utilize GTP”.
